Source: ChEMBL document CHEMBL3885861, “Open TG-GATES”

Species on record: Rattus norvegicus
Experiment: Open TG-GATES - Regimen: Single
Format: toxicity, organism-based, Sprague-Dawley
Parameters: regimen Single, gender Male, age 6 weeks
Details: in vivo, po, 100 mg/kg, route gavage, dose level Middle; for APTT / Bas / Eos / Fbg / Hb / Ht / Lym / MCH / MCHC / MCV / Mono / Neu / PT / Plat / RBC / Ret / WBC: tissue Blood; for KIDNEY_L / KIDNEY_R / KIDNEY_TOTAL: tissue Kidney; for LIVER: tissue Liver; for A/G / ALP / ALT / AST / BUN / CRE / Ca / Cl / DBIL / GLC / IP / K / LDH / Na / PL / RALB / TBIL / TC / TG / TP / gamma-GTP: tissue Plasma

CCCNC(=O)NS(=O)(=O)c1ccc(Cl)cc1 [CHLORPROPAMIDE]
TERMINAL_BW (3 h): 198.7 g
APTT (3 h): 19.6 s
Bas (3 h): 0%
Eos (3 h): 1%
Fbg (3 h): 311.8 mg/dL
Hb (3 h): 13.9 g/dL
Ht (3 h): 42.7%
Lym (3 h): 73.2%
MCH (3 h): 21.4 pg
MCHC (3 h): 32.5%
MCV (3 h): 66 fL
Mono (3 h): 3.8%
Neu (3 h): 20.8%
PT (3 h): 15.6 s
Plat (3 h): 113.1 x10_4/uL
RBC (3 h): 648.4 x10_4/ul
Ret (3 h): 9.2%
WBC (3 h): 72.2 x10_2/uL
KIDNEY_L (3 h): 0.9 g
KIDNEY_R (3 h): 0.9 g
KIDNEY_TOTAL (3 h): 1.8 g
LIVER (3 h): 8.8 g
A/G (3 h): 0.9
ALP (3 h): 1315.6 IU/L
ALT (3 h): 48.8 IU/L
AST (3 h): 80 IU/L
BUN (3 h): 11.2 mg/dL
CRE (3 h): 0.2 mg/dL
Ca (3 h): 10.8 mg/dL
Cl (3 h): 107.8 meq/L
DBIL (3 h): 0.01 mg/dL
GLC (3 h): 126.4 mg/dL
IP (3 h): 9.2 mg/dL
K (3 h): 3.8 meq/L
LDH (3 h): 71.6 IU/L
Na (3 h): 144.6 meq/L
PL (3 h): 129 mg/dL
RALB (3 h): 2.6 g/dL
TBIL (3 h): 0.02 mg/dL
TC (3 h): 74.6 mg/dL
TG (3 h): 71 mg/dL
TP (3 h): 5.7 g/dL
gamma-GTP (3 h): 1.4 IU/L
TERMINAL_BW (6 h): 194.9 g
APTT (6 h): 23.7 s
Bas (6 h): 0.2%
Eos (6 h): 1%
Fbg (6 h): 317 mg/dL
Hb (6 h): 13.6 g/dL
Ht (6 h): 41.9%
Lym (6 h): 71.6%
MCH (6 h): 21.7 pg
MCHC (6 h): 32.4%
MCV (6 h): 66.9 fL
Mono (6 h): 3.6%
Neu (6 h): 22.4%
PT (6 h): 15.1 s
Plat (6 h): 122.2 x10_4/uL
RBC (6 h): 627 x10_4/ul
Ret (6 h): 9.8%
WBC (6 h): 96.8 x10_2/uL
KIDNEY_L (6 h): 0.9 g
KIDNEY_R (6 h): 0.8 g
KIDNEY_TOTAL (6 h): 1.7 g
LIVER (6 h): 8 g
A/G (6 h): 0.9
ALP (6 h): 1525.8 IU/L
ALT (6 h): 44.2 IU/L
AST (6 h): 80.8 IU/L
BUN (6 h): 12.6 mg/dL
CRE (6 h): 0.2 mg/dL
Ca (6 h): 11 mg/dL
Cl (6 h): 109 meq/L
DBIL (6 h): 0.002 mg/dL
GLC (6 h): 123.8 mg/dL
IP (6 h): 9.9 mg/dL
K (6 h): 4 meq/L
LDH (6 h): 81 IU/L
Na (6 h): 143.8 meq/L
PL (6 h): 139.6 mg/dL
RALB (6 h): 2.6 g/dL
TBIL (6 h): 0.02 mg/dL
TC (6 h): 85.4 mg/dL
TG (6 h): 49.8 mg/dL
TP (6 h): 5.7 g/dL
gamma-GTP (6 h): 1.2 IU/L
TERMINAL_BW (9 h): 194.2 g
APTT (9 h): 17.1 s
Bas (9 h): 0%
Eos (9 h): 1%
Fbg (9 h): 307.8 mg/dL
Hb (9 h): 13.1 g/dL
Ht (9 h): 40.7%
Lym (9 h): 71.4%
MCH (9 h): 20.9 pg
MCHC (9 h): 32.3%
MCV (9 h): 64.8 fL
Mono (9 h): 3%
Neu (9 h): 24%
PT (9 h): 15.1 s
Plat (9 h): 119.5 x10_4/uL
RBC (9 h): 627.4 x10_4/ul
Ret (9 h): 10%
WBC (9 h): 82.5 x10_2/uL
KIDNEY_L (9 h): 0.9 g
KIDNEY_R (9 h): 0.9 g
KIDNEY_TOTAL (9 h): 1.8 g
LIVER (9 h): 7.8 g
A/G (9 h): 0.9
ALP (9 h): 1124.6 IU/L
ALT (9 h): 35.6 IU/L
AST (9 h): 77 IU/L
BUN (9 h): 9.8 mg/dL
CRE (9 h): 0.2 mg/dL
Ca (9 h): 10.7 mg/dL
Cl (9 h): 107.6 meq/L
DBIL (9 h): 0 mg/dL
GLC (9 h): 119.4 mg/dL
IP (9 h): 10.1 mg/dL
K (9 h): 3.9 meq/L
LDH (9 h): 68.6 IU/L
Na (9 h): 143.2 meq/L
PL (9 h): 120.4 mg/dL
RALB (9 h): 2.5 g/dL
TBIL (9 h): 0.026 mg/dL
TC (9 h): 70.8 mg/dL
TG (9 h): 37 mg/dL
TP (9 h): 5.4 g/dL
gamma-GTP (9 h): 1.2 IU/L
TERMINAL_BW (24 h): 210.9 g
APTT (24 h): 20 s
Bas (24 h): 0%
Eos (24 h): 1%
Fbg (24 h): 318.2 mg/dL
Hb (24 h): 12.6 g/dL
Ht (24 h): 39.1%
Lym (24 h): 73%
MCH (24 h): 21 pg
MCHC (24 h): 32.2%
MCV (24 h): 65.2 fL
Mono (24 h): 3.6%
Neu (24 h): 21%
PT (24 h): 15.8 s
Plat (24 h): 111.8 x10_4/uL
RBC (24 h): 599.4 x10_4/ul
Ret (24 h): 9.2%
WBC (24 h): 97.9 x10_2/uL
KIDNEY_L (24 h): 0.9 g
KIDNEY_R (24 h): 1 g
KIDNEY_TOTAL (24 h): 1.9 g
LIVER (24 h): 9.6 g
A/G (24 h): 0.9
ALP (24 h): 1496.2 IU/L
ALT (24 h): 45.4 IU/L
AST (24 h): 70.2 IU/L
BUN (24 h): 15.6 mg/dL
CRE (24 h): 0.2 mg/dL
Ca (24 h): 10.9 mg/dL
Cl (24 h): 105.8 meq/L
DBIL (24 h): 0.004 mg/dL
GLC (24 h): 177.4 mg/dL
IP (24 h): 8.4 mg/dL
K (24 h): 3.7 meq/L
LDH (24 h): 87.2 IU/L
Na (24 h): 143 meq/L
PL (24 h): 145 mg/dL
RALB (24 h): 2.6 g/dL
TBIL (24 h): 0.032 mg/dL
TC (24 h): 81.4 mg/dL
TG (24 h): 63.6 mg/dL
TP (24 h): 5.5 g/dL
gamma-GTP (24 h): 1 IU/L
